Source: ChEMBL document CHEMBL5096232, “Exploring the NCS-382 Scaffold for CaMKIIα Modulation: Synthesis, Biochemical Pharmacology, and Biophysical Characterization of Ph-HTBA as a Novel High-Affinity Brain-Penetrant Stabilizer of the CaMKIIα Hub Domain” (J Med Chem, 2022)
Active and inactive are the calls of the source. The calls are words filed in the database; no cut-off is given here.

Key:
[1] = target: T1, Calcium/calmodulin-dependent protein kinase type II subunit alpha (Rattus norvegicus, UniProt P11275); assay: Displacement of [3H]NCS-382 from CaMK2alpha in rat brain cortical membrane homogenates measured after 1 hr by TopCount scintillation counting method; format: cell membranes, Cortex
[2] = target: T2, Calcium/calmodulin-dependent protein kinase type II subunit alpha (Homo sapiens, UniProt Q9UQM7); assay: Binding affinity to recombinant human CaMK2alpha 6x hub domain (345 to 475 residues) Trp403 residue assessed as quenching of intrinsic tryptophan fluorescence at 9.8 to 29 uM by Trp flip assay; settings: filed as modulator, dose 9.8-29 µM
[3] = target: T1, Calcium/calmodulin-dependent protein kinase type II subunit alpha; assay: Displacement of [3H]HOCPCA from native CaMK2alpha in rat brain cortical membrane homogenates measured after 1 hr by TopCount scintillation counting method; format: cell membranes, Cortex
[4] = target: T1, Calcium/calmodulin-dependent protein kinase type II subunit alpha; assay: Displacement of [3H]HOCPCA from recombinant rat CaMK2alpha expressed in HEK293T cells measured after 1 hr by liquid scintillation counting method; format: cell-based
[5] = target: T2, Calcium/calmodulin-dependent protein kinase type II subunit alpha; assay: Binding affinity to recombinant human CaMK2alpha 6x hub domain (345 to 475 residues) expressed in Escherichia coli BL21 DE3 assessed as thermal stability by measuring change in melting temperature at 5 to 1280 uM by SYPRO orange dye based differential scanning fluorimetry; settings: dose 5-1280 µM
[6] = target: T2, Calcium/calmodulin-dependent protein kinase type II subunit alpha; settings: filed as modulator
Description: Binding affinity to recombinant human CaMK2alpha 6x hub domain (345 to 475 residues) expressed in Escherichia coli BL21 DE3 assessed as dissociation rate constant by surface plasmon resonance assay

[7] = target: T2, Calcium/calmodulin-dependent protein kinase type II subunit alpha; assay: Binding affinity to recombinant human CaMK2alpha 6x hub domain (345 to 475 residues) expressed in Escherichia coli BL21 DE3 assessed as dissociation constant by surface plasmon resonance assay
[8] = Drug concentration in C57BL/6J mouse plasma at 10 mg/kg, po by HPLC-MS/MS analysis; format: ADME, organism-based; settings: in vivo
BCRP [9] = assay: Apparent permeability across apical to basolateral side in MDCK-II-BCRP cells at 3 uM measured after 60 to 90 mins by LC-MS/MS analysis; format: ADME, cell-based, Canis lupus familiaris; settings: dog, time 60-90 min
BCRP [10] = assay: Apparent permeability across apical to basolateral side in MDCK-II-BCRP cells at 3 uM preincubated with BCRP inhibitor, Ko 143 for 15 to 30 mins followed by compound addition and measured after 60 to 90 mins by LC-MS/MS analysis; format: ADME, cell-based, Canis lupus familiaris; settings: dog, with Ko 143 (BCRP inhibitor; concentration not stated), time 60-90 min
[11] = Metabolic stability in mouse hepatocytes assessed as intrinsic clearance per 10^6 cells at 0.5 uM incubated in presence of NADPH regenerating system and measured for 120 mins by LC-MS/MS analysis; format: ADME, cell-based, Hepatocyte; settings: read-out: CLH
[12] = Unbound brain-to-plasma partition coefficient in C57BL/6J mouse at 10 mg/kg, po measured at 30 mins by HPLC-MS/MS analysis; format: ADME, organism-based; settings: read-out: K(p,uu,brain)
[13] = Metabolic stability in human liver microsomes assessed as intrinsic clearance per mg of protein at 0.5 uM incubated in presence of NADPH regenerating system and measured for 45 mins by LC-MS/MS analysis; format: ADME, Microsome; settings: read-out: CLH
[14] = Drug concentration in C57BL/6J mouse brain at 10 mg/kg, po by HPLC-MS/MS analysis; format: ADME, organism-based; settings: in vivo
MDR1 (P-gp) [15] = assay: Apparent permeability across basolateral to apical side in MDCKII-MDR1 cells at 3 uM preincubated with P-gp/BCRP transporter dual inhibitor, elacridar for 15 to 30 mins followed by compound addition and measured after 60 to 90 mins by LC-MS/MS analysis; format: ADME, cell-based, Canis lupus familiaris, MDCK-MDR1; settings: dog, time 60-90 min
[16] = Ratio of drug concentration in brain to plasma in C57BL/6J mouse at 10 mg/kg, po measured at 30 mins by HPLC-MS/MS analysis; format: ADME, organism-based; settings: read-out: BPR
[17] = Half life in ip dosed mouse; format: ADME, organism-based; settings: in vivo
MDR1 (P-gp) [18] = assay: Apparent permeability across apical to basolateral side in MDCKII-MDR1 cells at 3 uM measured after 60 to 90 mins by LC-MS/MS analysis; format: ADME, cell-based, Canis lupus familiaris; settings: dog, MDCK-MDR1, time 60-90 min
[19] = Metabolic stability in human hepatocytes assessed as intrinsic clearance per 10^6 cells at 0.5 uM incubated in presence of NADPH regenerating system and measured for 120 mins by LC-MS/MS analysis; format: ADME, cell-based, Hepatocyte; settings: read-out: CLH
BCRP [20] = assay: Apparent permeability across basolateral to apical side in MDCK-II-BCRP cells at 3 uM measured after 60 to 90 mins by LC-MS/MS analysis; format: ADME, cell-based, Canis lupus familiaris; settings: dog, time 60-90 min
MDR1 (P-gp) [21] = assay: Apparent permeability across apical to basolateral side in MDCKII-MDR1 cells at 3 uM preincubated with P-gp/BCRP transporter dual inhibitor, elacridar for 15 to 30 mins followed by compound addition and measured after 60 to 90 mins by LC-MS/MS analysis; format: ADME, cell-based, Canis lupus familiaris, MDCK-MDR1; settings: dog, time 60-90 min
MDR1 (P-gp) [22] = assay: Apparent permeability across basolateral to apical side in MDCKII-MDR1 cells at 3 uM measured after 60 to 90 mins by LC-MS/MS analysis; format: ADME, cell-based, Canis lupus familiaris; settings: dog, MDCK-MDR1, time 60-90 min
BCRP [23] = assay: Apparent permeability across basolateral to apical side in MDCK-II-BCRP cells at 3 uM preincubated with BCRP inhibitor, Ko 143 for 15 to 30 mins followed by compound addition and measured after 60 to 90 mins by LC-MS/MS analysis; format: ADME, cell-based, Canis lupus familiaris; settings: dog, with Ko 143 (BCRP inhibitor; concentration not stated), time 60-90 min
[24] = Metabolic stability in mouse liver microsomes assessed as intrinsic clearance per mg of protein at 0.5 uM incubated in presence of NADPH regenerating system and measured for 45 mins by LC-MS/MS analysis; format: ADME, Microsome; settings: read-out: CLH

T1 sequence (P11275 whole entry, the tested form may be a part): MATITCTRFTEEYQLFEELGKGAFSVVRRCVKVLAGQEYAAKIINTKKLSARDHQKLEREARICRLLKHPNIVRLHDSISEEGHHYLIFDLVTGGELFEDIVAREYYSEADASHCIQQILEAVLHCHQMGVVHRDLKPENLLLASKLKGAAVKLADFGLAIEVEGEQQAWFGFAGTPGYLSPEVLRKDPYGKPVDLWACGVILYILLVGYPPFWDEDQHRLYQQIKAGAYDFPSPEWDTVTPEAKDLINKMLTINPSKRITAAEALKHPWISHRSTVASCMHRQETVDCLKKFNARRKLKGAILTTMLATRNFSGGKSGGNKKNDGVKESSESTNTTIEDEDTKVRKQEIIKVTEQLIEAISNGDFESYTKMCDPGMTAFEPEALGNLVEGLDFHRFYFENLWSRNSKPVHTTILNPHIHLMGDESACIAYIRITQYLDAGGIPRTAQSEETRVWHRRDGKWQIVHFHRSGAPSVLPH
T2 sequence (Q9UQM7 whole entry, the tested form may be a part): as the sequence (P11275 whole entry, the tested form may be a part) above, with N324S counted along it

In the case of `O=C(O)/C=C1\CCCc2c(/C=C/c3c(Cl)cccc3Cl)cccc2C1O` (stereo unspecified), the Ki [1] is reported as 110 nM.

For `O=C(O)/C=C1\CCCc2c(/C=C/c3ccccc3)cccc2C1O` (stereo unspecified), the Ki [1] was 14000 nM, the Activity [2] was “Active” and the Ki [3] was 81 nM.

With `O=C(O)/C=C1\CCCc2c(Br)cccc2C1O` (stereo unspecified) the Ki [1] was 230 nM.

`O=C(O)C1=CC(O)CC1` (stereo unspecified) gave a Ki [1] of 160 nM, a Ki [3] of 130 nM and a Ki [4] of 1800 nM.

With `O=C(O)/C=C1\CCCc2ccc(-c3ccccc3)cc2C1O` (stereo unspecified) the Ki [1] was 14000 nM.

`Cc1ccc2c(c1)CCC/C(=C\C(=O)O)C2O` (stereo unspecified) gave a Ki [1] of 320 nM.

Work on `O=C(O)/C=C1\CCCc2cc(F)ccc2C1O` (stereo unspecified) yielded a Ki [1] of 110 nM.

`O=C(O)/C=C1\CCCc2c(CCc3ccccc3)cccc2C1O` (stereo unspecified) showed a Ki [1] of 56 nM.

Molecule `O=C(O)/C=C1\CCCc2ccccc2C1O` (stereo unspecified) has a ΔTm [5] of 16.7 °C, a Ki [1] of 340 nM and a Kdiss [6] of 0.75 s⁻¹. It also gave a Ki [3] of 590 nM, a Ki [4] of 3900 nM and a Kd [7] of 8900 nM.

Work on `O=C(O)/C=C1\CCCc2cc(/C=C/c3ccccc3)ccc2C1O` (stereo unspecified) yielded a Ki [1] of 40 nM.

Work on `O=C([O-])/C=C1\CCCc2cc(-c3ccccc3)ccc2C1O.[Na+]` (stereo unspecified) yielded a Cp [8] of 1450 ng/mL, a Papp A→B at 3 µM (BCRP [9]) of 15.8 ×10⁻⁶ cm/s and a Papp A→B at 3 µM (BCRP [10]) of 15.9 ×10⁻⁶ cm/s. For the same molecule, the hepatocyte CLint at 0.5 µM [11] was 65 µL/min/1e6 cells, the Kp uu at 0.5 h [12] was 0.85 and the microsomal CLint at 0.5 µM [13] was greater than 9.9 µL/min/mg. The Ct [14] was 99.1 ng/mL, the Papp B→A at 3 µM (MDR1 (P-gp) [15]) was 15 ×10⁻⁶ cm/s and the Kp at 0.5 h [16] was 0.1. The half-life [17] was 18 min, the Papp A→B at 3 µM (MDR1 (P-gp) [18]) was 13 ×10⁻⁶ cm/s and the hepatocyte CLint at 0.5 µM [19] was 8.6 µL/min/1e6 cells. It also gave a Papp B→A at 3 µM (BCRP [20]) of 19.4 ×10⁻⁶ cm/s, a Papp A→B at 3 µM (MDR1 (P-gp) [21]) of 12.9 ×10⁻⁶ cm/s and a Papp B→A at 3 µM (MDR1 (P-gp) [22]) of 16.3 ×10⁻⁶ cm/s. The Papp B→A at 3 µM (BCRP [23]) was 16.5 ×10⁻⁶ cm/s and the microsomal CLint at 0.5 µM [24] was greater than 9.9 µL/min/mg.
